Measurements published in ChEMBL document CHEMBL1141045, “Cyclic sulfamide gamma-secretase inhibitors” (Bioorg Med Chem Lett, 2005).

Legend:
[1] = AUC after administration of 1 (mpk) to rat through oral route; format: ADME, organism-based; conditions: plasma, 1 mg/kg
Gamma-secretase = assay: Inhibitory concentration against gamma-secretase in whole cell SH-SY5Y assay; format: protein-complex assay
[2] = AUC after administration of 4 (mpk) to rat through oral route; format: ADME, organism-based; conditions: plasma, 4 mg/kg
Rattus norvegicus = assay: (§1) AUC after administration of 30 (mpk) to rat through oral route; format: ADME, organism-based, Plasma; conditions: in vivo, 30 mg/kg
[3] = as §1; format: ADME, organism-based, Plasma; conditions: plasma, 30 mg/kg

Q: For `CCCN1C[C@]2(NS1(=O)=O)[C@@H]1CC[C@H]2Cc2ccc(/C=C/CN3CCOCC3)cc2C1`, which AUC [1] is on record?
A: The AUC was 1.19 µM·h.

Q: And the IC50 (Gamma-secretase)?
A: The IC50 was 19 nM.

Q: With `CN1CCN(C/C=C/c2ccc3c(c2)C[C@H]2CC[C@@H](C3)[C@]23CN(CC(F)(F)F)S(=O)(=O)N3)CC1=O` as the compound, how does the IC50 (Gamma-secretase) read?
A: The IC50 was 21 nM.

Q: With `O=S1(=O)N[C@@]2(CN1C(F)(F)F)[C@@H]1CC[C@H]2Cc2ccccc2C1` as the compound, how does the IC50 (Gamma-secretase) read?
A: The IC50 was 17 nM.

Q: What does the source list for `O=S(=O)(NC1[C@@H]2CC[C@H]1Cc1ccc(/C=C/CN3CCOCC3)cc1C2)c1ccc(Cl)s1` (some centres not stated)?
A: AUC [2]: 0.38 µM·h; IC50 (Gamma-secretase): 1 nM

Q: Which IC50 (Gamma-secretase) does the source give for `CCNS(=O)(=O)N[C@H]1[C@@H]2CC[C@H]1Cc1ccccc1C2` here?
A: The IC50 was 394 nM.

Q: For `O=S(=O)(N[C@H]1[C@@H]2CC[C@H]1Cc1ccccc1C2)c1ccc(Cl)s1`, which AUC (Rattus norvegicus) is on record?
A: Its AUC is 0.01 uMh.

Q: For `CC1CCN(C/C=C/c2ccc3c(c2)C[C@H]2CC[C@@H](C3)[C@]23CN(CC(F)(F)F)S(=O)(=O)N3)CC1`, which IC50 (Gamma-secretase) is on record?
A: Its IC50 is 18 nM.

Q: For `CCCNS(=O)(=O)N[C@H]1[C@@H]2CC[C@H]1Cc1ccccc1C2`, which AUC [3] is on record?
A: The AUC was 0.6 µM·h.

Q: And the IC50 (Gamma-secretase)?
A: Its IC50 is 132 nM.

Q: What does the source list for `CCCN1C[C@]2(NS1(=O)=O)[C@@H]1CC[C@H]2Cc2ccccc2C1`?
A: AUC [1]: 0.1 µM·h; IC50 (Gamma-secretase): 138 nM

Q: For `CCCCN1C[C@]2(NS1(=O)=O)[C@@H]1CC[C@H]2Cc2ccccc2C1`, which IC50 (Gamma-secretase) is on record?
A: The IC50 was 122 nM.

Q: Which IC50 (Gamma-secretase) does the source give for `CCCN1C[C@]2(NS1(=O)=O)[C@@H]1CC[C@H]2Cc2ccc(/C=C/CN3CCC(C(F)(F)F)CC3)cc2C1` here?
A: Its IC50 is 2 nM.

Q: For `O=S1(=O)N[C@@]2(CN1CC(F)(F)F)[C@@H]1CC[C@H]2Cc2ccc(/C=C/CN3CCCCC3)cc2C1`, which IC50 (Gamma-secretase) is on record?
A: The IC50 was 250 nM.

Q: Which IC50 (Gamma-secretase) does the source give for `O=S1(=O)N[C@@]2(CN1CC(F)(F)F)[C@@H]1CC[C@H]2Cc2ccc(/C=C/CN3CCC(C(F)(F)F)CC3)cc2C1` here?
A: Its IC50 is 0.5 nM.

Q: Which IC50 (Gamma-secretase) does the source give for `CC(=O)N1CCN(C/C=C/c2ccc3c(c2)C[C@H]2CC[C@@H](C3)[C@]23CN(CC(F)(F)F)S(=O)(=O)N3)CC1` here?
A: Its IC50 is 4 nM.

Q: With `O=S(=O)(N[C@H]1[C@@H]2CC[C@H]1Cc1ccccc1C2)NC(F)(F)F` as the compound, how does the IC50 (Gamma-secretase) read?
A: Its IC50 is 134 nM.

Q: Which IC50 (Gamma-secretase) does the source give for `O=S1(=O)N[C@@]2(CN1CC(F)(F)F)[C@@H]1CC[C@H]2Cc2ccc(/C=C/CN3CCOCC3)cc2C1` here?
A: Its IC50 is 3.4 nM.

Q: With `CCCCNS(=O)(=O)N[C@H]1[C@@H]2CC[C@H]1Cc1ccccc1C2` as the compound, how does the IC50 (Gamma-secretase) read?
A: Its IC50 is 766 nM.

Q: Which IC50 (Gamma-secretase) does the source give for `CCN1C[C@]2(NS1(=O)=O)[C@@H]1CC[C@H]2Cc2ccccc2C1` here?
A: The IC50 was 429 nM.
